Source: patent US20180214506A1, “COMBINATION ADMINISTRATION OF GNRH ANTAGONISTS” (ANTEV LIMITED, priority 2017, published 2018)
Values after ≈ are worked out from the molar mass of the structure shown. Structures can show the parent of a compound that is named as a salt. Where two headings read alike, the source gives them in different places. Non-standard residues stand in square brackets, D forms with d. Residues, ends and D or L forms follow the SMILES beside them. Phe(4-Cl) = N[C@@H](Cc1ccc(Cl)cc1)C(=O)O; dPhe(4-Cl) = N[C@H](Cc1ccc(Cl)cc1)C(=O)O; d2Nal = N[C@H](Cc1ccc2ccccc2c1)C(=O)O; d(hCit) = NC(=O)NCCCC[C@@H](N)C(=O)O; Lys(iPr) = CC(C)NCCCC[C@H](N)C(=O)O; d3Pal = N[C@H](Cc1cccnc1)C(=O)O

What was measured:
[1] = Phase I study D-84812-Z012, single s.c. injection: pharmacokinetics of teverelix; assay type: in vivo, human
[2] = Phase I study D-84812-Z012, single s.c. injection: safety and tolerability; assay type: in vivo, human; settings: doses up to 90 mg, 32 healthy male volunteers
[3] = Phase II study 2 x 90 mg i.m. Days 1 and 8 (A014): plasma PK of teverelix; assay type: in vivo; settings: male, human, im; for AUC(0-t) / Cmax / Tmax / AUC(0-inf) / half-life: 90 mg; for AUC(0-t): N=14, read-out: AUC (0-t) Geometric mean; for Cmax: N=14, read-out: Cmax (obs) Geometric mean; for Tmax: N=14, read-out: Tmax (obs) Median
Description: In order to test the hypothesis that and IM injection of a GnRH antagonist could be useful as part of a prostate cancer regimen, a Phase II Multicenter, Open-label Study Investigating the Pharmacokinetics, Pharmacodynamics, Efficacy and Safety of a Teverelix 90 mg, TFA formulation was conducted.
(§1) The primary objective was to assess the duration of action of an initial “loading” dose regimen of Teverelix TFA delivered IM in terms of suppression of testosterone to below castrate level (0.5 ng/mL [2 nmol/L]). The secondary objectives were to assess the pharmacodynamics of teverelix in terms of ability to suppress and to maintain plasma testosterone levels below castration level (<0.5 ng/mL [2 nmol/L]) for 3 weeks; to assess the effects on luteinising hormone (LH) and prostate specific antigen (PSA); and to assess the safety of Teverelix in terms of incidence of local and systemic tolerability (adverse events [AEs] and changes in laboratory parameters).
(§2) This was a multicenter, open-label, non-controlled study in 14 patients diagnosed with advanced prostate cancer. Patients were screened for inclusion in the study between 1 and 7 days before first administration. Each patient received 2 intramuscular (i.m.) injections of 90 mg Teverelix TFA, 7 days apart, on Study Days 1 and 8. […] Blood samples were taken for the evaluation of teverelix, testosterone and LH in plasma, and PSA levels. Safety and tolerability were assessed throughout the study by monitoring local and systemic tolerability (AEs, clinical laboratory tests, vital signs an electrocardiogram [ECG]).
The geometric means for Cmax(obs), AUC(0-t), and AUC(0-∞) (along with respective coefficients of variations presented in parenthesis); Tmax median (along with the range of Tmax values presented in parenthesis); and arithmetic mean for T1/2,elim (along with standard deviation presented in parenthesis) are presented in Table 1 for each dose of teverelix IM.
The combined geometric means for AUC and AUC(∞) (along with respective coefficients of variations presented in parenthesis); and arithmetic mean for apparent clearance (CL/F) (along with standard deviation presented in parenthesis) for the two i.m. doses of teverelix are presented in Table 2.

[4] = Phase II study 2 x 90 mg i.m. (A014): tolerability; assay type: in vivo, human; settings: A014: i.m. 90 mg day 1 and 8
Description: as §1, §2
(§3) Comparison of s.c. injection 90 mg days 1, 2 and 3 vs. IM injection day 1 and 8.

[5] = Water solubility of teverelix; assay type: physicochemical
Description: In some instances, the GnRH antagonist can be teverelix ((Ac-D-NaID-pClPhe-D-Pal-Ser-Tyr-D-Hci-Leu-Lys(iPr)-Pro-D-Ala-NH2). Teverelix is a synthetic decapeptide with a water solubility of approximately 10 mg/mL.

[6] = Phase I study EP-24332T-A004, repeated s.c. injections: tolerability; assay type: in vivo, human; settings: 2 doses of 60 mg or 90 mg s.c. at 24 h or 48 h interval
Description: In a second Phase I study (EP-24332T-A004), a second injection was administered 24 h or 48 h after the first in order to increase and prolong the initial peak, as well as increase the teverelix level and consequently the number of subjects castrated. As the previous Phase I study had shown 10 mg and 30 mg to be insufficient to provide a long-term suppression, 2 doses of 60 mg or 90 mg (6 subjects per group) or placebo (4 subjects) were administered at a 24 h interval and 2 doses of 90 mg at a 48 h interval. […] No critical safety findings were reported. […] The protocol of the study included 6 subjects who received 90 mg Teverelix TFA on D1; D2; D3.

[7] = Clinical study A013, s.c. injection 90 mg days 1, 2 and 3: tolerability; assay type: in vivo, human; settings: A013: s.c. 90 mg days 1, 2 and 3
Description: as §3

[8] = compared with degarelix; cited from earlier work

Structure (SMILES)	dose proportionality ([1]; between the 60 mg and 90 mg doses, single s.c.)	half-life ([1]; human, plasma, sc, single s.c. injection, doses up to 90 mg, healthy male volunteers)	tolerability [2]	AUC(0-t) ([3]; Day 1 (Dose 1): 1 x 90 mg i.m.)	Cmax ([3]; Day 1 (Dose 1): 1 x 90 mg i.m.)	Tmax ([3]; Day 1 (Dose 1): 1 x 90 mg i.m.)	AUC(0-inf) ([3]; Day 1 (Dose 1): 1 x 90 mg i.m., n = 8, read-out: AUC (0-∞) Geometric mean)	half-life ([3]; Day 1 (Dose 1): 1 x 90 mg i.m., n = 8, read-out: T1/2,elim Arithmetic mean (converted))	AUC(0-t) ([3]; Day 8 (Dose 2): 1 x 90 mg i.m.)	AUC(0-inf) ([3]; Day 8 (Dose 2): 1 x 90 mg i.m., N=14, read-out: AUC (0-∞) Geometric mean)	Cmax ([3]; Day 8 (Dose 2): 1 x 90 mg i.m.)	half-life ([3]; Day 8 (Dose 2): 1 x 90 mg i.m., N=14, read-out: T1/2,elim Arithmetic mean (converted))	Tmax ([3]; Day 8 (Dose 2): 1 x 90 mg i.m.)	CL/F ([3]; 2 x 90 mg i.m., N=14, read-out: CL/F Arithmetic mean (converted))	tolerability [4]	solubility [5]	local reactions at the injection sites [6]	tolerability [6]	tolerability [7]	local irritation at the administration site [8]
CC(=O)N[C@H](Cc1ccc2ccccc2c1)C(=O)N[C@H](Cc1ccc(Cl)cc1)C(=O)N[C@H](Cc1cccnc1)C(=O)N[C@@H](CO)C(=O)N[C@@H](Cc1ccc(O)cc1)C(=O)N[C@H](CCCCNC(N)=O)C(=O)N[C@@H](CC(C)C)C(=O)N[C@@H](CCCCNC(C)C)C(=O)N1CCC[C@H]1C(=O)N[C@H](C)C(N)=O [Teverelix TFA, teverelix trifluoroacetate] (Ac-[d2Nal][dPhe(4-Cl)][d3Pal]SY[d(hCit)]L[Lys(iPr)]P[dA]-NH2)	Dose proportionality was demonstrated	252 to 331 h	tolerated well	1.73 µg·h/mL	0.0215 µg/mL	2 h	4.61 µg·h/mL	167 h	8.36 µg·h/mL	9.38 µg·h/mL	0.038 µg/mL	404 h	1 h	249 mL/min	Very good/good for all patients					
CC(=O)N[C@H](Cc1ccc2ccccc2c1)C(=O)N[C@@H](Cc1ccc(Cl)cc1)C(=O)N[C@H](Cc1cccnc1)C(=O)N[C@@H](CO)C(=O)N[C@H](Cc1ccc(O)cc1)C(=O)N[C@H](CCCCNC(N)=O)C(=O)N[C@@H](CC(C)C)C(=O)N[C@@H](CCCCNC(C)C)C(=O)N1CCC[C@H]1C(=O)N[C@H](C)C(N)=O [teverelix, Ac-D-NaID-pClPhe-D-Pal-Ser-Tyr-D-Hci-Leu-Lys(iPr)-Pro-D-Ala-NH2] (Ac-[d2Nal][Phe(4-Cl)][d3Pal]S[dY][d(hCit)]L[Lys(iPr)]P[dA]-NH2)																~10 mg/mL (≈ 6.85 mM)	only mild local indurations at the injection sites	tolerated well	Very good/good for all patients	less local irritation at the administration site than degarelix
